Experimental data reported in patent publication US10143201B2, “Fungicidal compositions” (Syngenta Crop Protection LLC, priority 2007, dated 2018).
Read-outs that look alike come from different tables or passages of the source.

How the values were obtained:
Format in all cases: cell-based
Botrytis cinerea = assay: Fungicidal action against Botrytis cinerea (gray mould), microtiter growth inhibition
Experimental: Example B2: Fungicidal Action Against Botrytis cinerea (Gray Mould)
(§1) Conidia of the fungus from cryogenic storage are directly mixed into nutrient broth (PDB potato dextrose broth). After placing a (DMSO) solution of the test compounds into a microtiter plate (96-well format) the nutrient broth containing the fungal spores is added. The test plates are incubated at 24° C. and the inhibition of growth is evaluated after 4 days. The expected fungicidal action is calculated according to the Colby method.

Alternaria solani = assay: Fungicidal action against Alternaria solani (early blight tomato/potato), microtiter growth inhibition
Experimental: Example B4: Fungicidal Action Against Alternaria solani (Early Blight Tomato/Potato)
as §1, with “after 3” for “after 4”

[1] = system: Pseudocercosporella herpotrichoides (syn. Tapesia yallundae); assay: Fungicidal action against Pseudocercosporella herpotrichoides (eye spot of cereals), microtiter growth inhibition
Experimental: Example B5: Funicidal Action Against Pseudocercosporella herpotrichoides (Syn. Tapesia yallundae), Eye Spot of Cereals
as §1

Pyrenophora teres = assay: Fungicidal action against Pyrenophora teres (net blotch), microtiter growth inhibition; conditions: for inhibition at 0.0625 ppm / inhibition at 0.125 ppm / inhibition at 0.5 ppm / inhibition at 1 ppm: read-out: % activity; for % activity: alone
Experimental: Example B6: Fungicidal Action Against Pyrenophora teres (Net Blotch)
as §1

Septoria tritici = assay: Fungicidal action against Septoria tritici (leaf blotch), microtiter growth inhibition; conditions: for % activity: alone
Experimental: Example B3: Fungicidal Action Against Septoria tritici (Leaf Blotch)
as §1

Gaeumannomyces graminis = assay: Fungicidal action against Gaeumannomyces graminis (take-all of cereals), microtiter growth inhibition; conditions: Gaeumannomyces graminis
Experimental: Example B7: Fungicidal Action Against Gaeumannomyces graminis (Take-all of Cereals)
as §1, with “Mycelial fragments” for “Conidia”, “24 C” for “24° C.”, “days.” for “days. The expected fungicidal action is calculated according to the Colby method.”

[2] = system: Cercospora arachidicola (syn. Mycosphaerella arachidis); assay: Fungicidal action against Cercospora arachidicola (brown leaf spot of groundnut), microtiter growth inhibition; conditions: Mycosphaerella arachidis
Experimental: Example B8: Fungicidal Action Against Cercospora arachidicola (Syn. Mycosphaerella arachidis), Brown Leaf Spot of Groundnut (Peanut)
as §1, with “24 C” for “24° C.”, “7” for “4”, “days.” for “days. The expected fungicidal action is calculated according to the Colby method.”

[3] = Pyrenophora teres, compound alone
[4] = Botrytis cinerea, read-out: % activity
[5] = Zymoseptoria tritici, read-out: % activity
[6] = Oculimacula yallundae, read-out: % activity
[7] = compound alone, 0.0625 ppm, read-out: % activity

CC(Cc1ccc(C(C)(C)C)cc1)CN1CCCCC1 (centres unmarked) [Fenpropidin, fenpropidin] gave an inhibition at 0.5 ppm (Botrytis cinerea; Botrytis cinerea, 0.5000 ppm, alone) of 0%, an inhibition at 1 ppm (Botrytis cinerea; Botrytis cinerea, 1.0000 ppm, alone) of 0% and an inhibition at 2 ppm (Botrytis cinerea; Botrytis cinerea, 2.0000 ppm, alone) of 0%. The inhibition at 0.125 ppm (Alternaria solani; Alternaria solani, 0.1250 ppm, alone) was 0%, the inhibition at 0.25 ppm (Alternaria solani; Alternaria solani, 0.2500 ppm, alone, read-out: % activity) was 0% and the inhibition at 0.5 ppm (Alternaria solani; Alternaria solani, 0.5000 ppm, alone, read-out: % activity) was 0%. For the same molecule, the inhibition at 1 ppm (Alternaria solani; Alternaria solani, 1.0000 ppm, alone) was 0%, the inhibition at 0.0156 ppm ([1]; Oculimacula yallundae, 0.0156 ppm, alone, read-out: % activity) was 0% and the inhibition at 0.0313 ppm ([1]; Oculimacula yallundae, 0.0313 ppm, alone) was 0%. For the same molecule, the inhibition at 0.0625 ppm ([1]; Oculimacula yallundae, 0.0625 ppm, alone) was 0%, the inhibition at 0.125 ppm ([1]; Oculimacula yallundae, 0.1250 ppm, alone) was 0% and the inhibition at 0.25 ppm ([1]; Oculimacula yallundae, 0.2500 ppm, alone, read-out: % activity) was 0%. The inhibition at 0.0625 ppm (Pyrenophora teres; Pyrenophora teres, compound alone, 0.0625 ppm) was 0%, the inhibition at 0.125 ppm (Pyrenophora teres; Pyrenophora teres, compound alone, 0.1250 ppm) was 0% and the inhibition at 0.25 ppm (Pyrenophora teres; Pyrenophora teres, compound alone, 0.2500 ppm) was 0%. For the same molecule, the inhibition at 0.5 ppm (Pyrenophora teres; Pyrenophora teres, compound alone, 0.5000 ppm) was 0% and the inhibition at 2 ppm (Pyrenophora teres; [3]) was 0%.
In the case of N#Cc1c[nH]cc1-c1cccc2c1OC(F)(F)O2 [Fludioxonil, fludioxonil], the inhibition at 0.0313 ppm (Botrytis cinerea; [4]) is reported as 0%, the inhibition at 0.0625 ppm (Botrytis cinerea; [4]) is reported as 20% and the inhibition at 0.125 ppm (Botrytis cinerea; [4]) is reported as 90%. It also gave an inhibition at 0.0625 ppm (Septoria tritici; [5]) of 0%, an inhibition at 0.125 ppm (Septoria tritici; [5]) of 0% and an inhibition at 0.0078 ppm (Alternaria solani; Alternaria solani, read-out: % activity, 0.0078 ppm, alone) of 0%. For the same molecule, the inhibition at 0.0156 ppm (Alternaria solani; Alternaria solani, read-out: % activity, 0.0156 ppm, alone) was 0%, the inhibition at 0.0313 ppm (Alternaria solani; Alternaria solani, read-out: % activity, 0.0313 ppm, alone) was 0% and the inhibition at 0.0625 ppm (Alternaria solani; Alternaria solani, read-out: % activity, 0.0625 ppm, alone) was 20%. It also gave an inhibition at 0.25 ppm (Alternaria solani; Alternaria solani, read-out: % activity, 0.2500 ppm, alone) of 50%, an inhibition at 0.5 ppm (Alternaria solani; Alternaria solani, read-out: % activity, 0.5000 ppm, alone) of 70% and an inhibition at 0.0078 ppm [1, 6] of 0%. It also gave an inhibition at 0.0156 ppm [1, 6] of 0%, an inhibition at 0.25 ppm [1, 6] of 20% and an inhibition at 0.5 ppm [1, 6] of 20%. It also gave an inhibition at 1 ppm [1, 6] of 20%, an inhibition at 2 ppm [1, 6] of 20% and an inhibition at 0.0625 ppm (Pyrenophora teres; Pyrenophora teres) of 20%. It also gave an inhibition at 0.125 ppm (Pyrenophora teres; Pyrenophora teres) of 70%.
Molecule C#CCOc1ccc(CCNC(=O)C(OCC#C)c2ccc(Cl)cc2)cc1OC (centres unmarked) [Mandipropamid, mandipropamid] has an inhibition at 0.125 ppm (Septoria tritici; [5]) of 0%, an inhibition at 0.25 ppm (Septoria tritici; [5]) of 0% and an inhibition at 0.5 ppm (Septoria tritici; [5]) of 0%. It also gave an inhibition at 0.5 ppm (Pyrenophora teres; Pyrenophora teres) of 0%, an inhibition at 1 ppm (Pyrenophora teres; Pyrenophora teres) of 0% and an inhibition at 0.0039 ppm (Gaeumannomyces graminis; read-out: % activity) of 0%. The inhibition at 0.0078 ppm (Gaeumannomyces graminis; read-out: % activity) was 0%, the inhibition at 0.0313 ppm (Gaeumannomyces graminis; read-out: % activity) was 0% and the inhibition at 0.0625 ppm (Gaeumannomyces graminis; read-out: % activity) was 0%. The inhibition at 0.0039 ppm ([2]; read-out: % activity) was 0% and the inhibition at 0.0078 ppm ([2]; read-out: % activity) was 0%.
With CO/C=C(/C(=O)OC)c1ccccc1COc1cccc(C(F)(F)F)n1 [Picoxystrobin, picoxystrobin] the “% activity” value (Botrytis cinerea; 0.0625 ppm, alone) was 0%, the “% activity” value (Botrytis cinerea; 0.1250 ppm, alone) was 0% and the “% activity” value (Botrytis cinerea; 0.2500 ppm, alone) was 0%. The “% activity” value (Botrytis cinerea; 0.5000 ppm, alone) was 0%, the “% activity” value (Botrytis cinerea; 1.0000 ppm, alone) was 0% and the “% activity” value (Botrytis cinerea; 2.0000 ppm, alone) was 0%. The “% activity” value (Septoria tritici; 0.0156 ppm) was 20%, the “% activity” value (Septoria tritici; 0.0313 ppm) was 70% and the “% activity” value (Alternaria solani; 0.0078 ppm, alone) was 0%. For the same molecule, the “% activity” value (Alternaria solani; 0.0156 ppm, alone) was 20%, the “% activity” value (Alternaria solani; 0.0313 ppm, alone) was 20% and the “% activity” value (Alternaria solani; 0.0625 ppm, alone) was 50%. For the same molecule, the “% activity” value (Alternaria solani; 0.1250 ppm, alone) was 50%, the “% activity” value (Alternaria solani; 0.2500 ppm, alone) was 50% and the “% activity” value (Alternaria solani; 0.5000 ppm, alone) was 50%. The “% activity” value (Alternaria solani; 2.0000 ppm, alone) was 50%, the “% activity” value ([1]; 0.0078 ppm, alone) was 0% and the “% activity” value ([1]; 0.0156 ppm, alone) was 20%. The “% activity” value ([1]; 0.0313 ppm, alone) was 50%, the “% activity” value ([1]; 0.0625 ppm, alone) was 50% and the “% activity” value ([1]; 0.1250 ppm, alone) was 50%. The “% activity” value ([1]; 0.2500 ppm, alone) was 50%, the “% activity” value ([1]; 0.5000 ppm, alone) was 50% and the “% activity” value ([1]; 1.0000 ppm, alone) was 70%. The “% activity” value (Pyrenophora teres; 0.0313 ppm) was 50% and the “% activity” value (Pyrenophora teres; 0.0625 ppm) was 70%.
CCCC1COC(Cn2cncn2)(c2ccc(Cl)cc2Cl)O1 (centres unmarked) [Propiconazole] was tested, and the inhibition at 1 ppm (Pyrenophora teres; Pyrenophora teres, compound alone, 1.0000 ppm) was 20%, the inhibition at 2 ppm (Pyrenophora teres; [3]) was 50% and the inhibition at 0.0039 ppm (Gaeumannomyces graminis; compound alone, 0.0039 ppm, read-out: % activity) was 0%. It also gave an inhibition at 0.0078 ppm (Gaeumannomyces graminis; compound alone, 0.0078 ppm, read-out: % activity) of 0%, an inhibition at 0.0625 ppm (Gaeumannomyces graminis; [7]) of 0% and an inhibition at 0.0313 ppm ([2]; compound alone, 0.0313 ppm) of 20%. The inhibition at 0.0625 ppm ([2]; compound alone) was 70% and the inhibition at 0.125 ppm ([2]; compound alone, 0.1250 ppm) was 90%.
OC(Cc1ccccc1Cl)(Cn1nc[nH]c1=S)C1(Cl)CC1 (centres unmarked) [Prothioconazole] was tested, and the inhibition at 0.0625 ppm (Gaeumannomyces graminis; [7]) was 50%, the inhibition at 0.25 ppm (Gaeumannomyces graminis; compound alone, 0.2500 ppm) was 90% and the inhibition at 0.5 ppm (Gaeumannomyces graminis; compound alone, 0.5000 ppm) was 90%. The inhibition at 0.0625 ppm ([2]; compound alone) was 70%.
In the case of CC(C)(C)C(O)(CCc1ccc(Cl)cc1)Cn1cncn1 (centres unmarked) [Tebuconazole], the inhibition at 0.125 ppm (Gaeumannomyces graminis; compound alone, 0.1250 ppm) is reported as 50%.
